Values after ≈ are worked out from the molar mass of the structure shown.
What was measured:
[1] = target: KRAS G12C (GMPPNP-loaded) and cRAF (Ras-binding domain) interaction (Homo sapiens (Human), UniProt P01116, C118S/C51S/C80L/G12C); assay: Inhibition of KRAS G12C and cRAF binding (AlphaScreen); details: KRAS G12C loaded with GMPPNP, cRaf RBD, 2 hours preincubation; read-out: Raf-1 RBD K-Ras IC50
Procedure, shortened: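 AlphaScreen readout (680 nm excitation, 570 nm emission) of RBD binding after a 60-90 min bead step at room temperature. This step follows 2 h compound exposure of GMPPNP-preloaded KRAS G12C in Hepes pH 7.4 buffer with MgCl2 and 10 μM GMPPNP.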

[2] = target: KRAS G12C (GMPPNP-loaded) and PI3Ka (Ras-binding domain) interaction (Homo sapiens (Human), UniProt P01116, C118S/C51S/C80L/G12C); assay: Inhibition of KRAS G12C and PI3Ka binding (AlphaScreen); details: KRAS G12C loaded with GMPPNP, PI3Ka RBD, 2 hours preincubation; read-out: PI3K RBD K-Ras IC50
Chain of KRAS G12C (GMPPNP-loaded) and PI3Ka (Ras-binding domain) interaction (P01116 other isoform, or with tags, fused parts or gaps G12C/C51S/C80L/C118S): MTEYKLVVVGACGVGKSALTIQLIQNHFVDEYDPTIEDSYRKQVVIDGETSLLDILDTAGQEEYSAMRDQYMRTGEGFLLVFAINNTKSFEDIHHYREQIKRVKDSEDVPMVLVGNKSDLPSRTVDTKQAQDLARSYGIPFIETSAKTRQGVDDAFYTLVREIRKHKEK
Procedure, shortened: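 Biotin-AviTag Cys-light KRAS G12C (aa 1-169, C51S/C80L/C118S), GMPPNP-loaded, 1.5 nM, preincubated 2 h with compound, then His-tagged PI3Ka RBD (aa 157-300, 100 nM) plus AlphaScreen beads added for 60-90 min, RT. Buffer Hepes pH 7.4, 10 μM GMPPNP, 2% DMSO; 10-point 1:3 from 50 μM; 4-parameter IC50.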

[3] = Determination of logD (1-octanol / phosphate buffer pH 7.4); type: physicochemical; details: 1-octanol/phosphate buffer, pH 7.4, pH 7.4, 1-octanol/phosphate buffer; read-out: Log D, pH 7.4
Procedure, shortened: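 Each phase analysed by LCMS after 1 h shaking at 800 rpm and centrifugation, room temperature. Phases were mutually saturated 1-octanol and 100 mM phosphate buffer at pH 7.4. LogD derived from the phase concentrations.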

[4] = Determination of kinetic solubility (pH 7.4); type: physicochemical; details: for solubility kinetic at 2 h: phosphate buffer, pH 7.4, aqueous buffer, kinetic from dmso stock, 50 mM phosphate buffer pH 7.4, read-out: Ksol, pH 7.4
Procedure, shortened: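 Solubility taken from filtrate peak areas on a calibration curve (HPLC-UV, LC-MS/MS). Before filtration and centrifugation, compound was shaken for 2 h at room temperature in pH 7.4 50 mM phosphate buffer.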

Chain of KRAS G12C (GMPPNP-loaded) and cRAF (Ras-binding domain) interaction (P01116 other isoform, or with tags, fused parts or gaps G12C/C51S/C80L/C118S): as above

Row | SMILES | IC50 [1] | IC50 [2] | logD [3] | solubility kinetic at 2 h [4] | Ksol, pH 7.4 (ug/mL) ([4]; 50 mM phosphate buffer pH 7.4)
1 | CCO[C@H]1CCN(C/C=C/C(=O)N2CCN(c3nc(OC[C@@]45CCCN4C[C@H](F)C5)nc4c(F)c(-c5cccc6cccc(Cl)c56)ncc34)C[C@@H]2CC#N)C1 [Compound 91, 2-((S)-4-(7-(8-chloronaphthalen-1-yl)-8-fluoro-2-(((2R,7aS)-2-fluorohexahydro-1H-pyrrolizin-7a-yl)methoxy)pyrido[4,3-d]pyrimidin-4-yl)-1-((E)-4-((S)-3-ethoxypyrrolidin-1-yl)but-2-enoyl)piperazin-2-yl)acetonitrile] | < 10 nM | < 10 nM | 1.83 | 110 µg/mL (≈ 143 µM) | –
2 | N#CC[C@H]1CN(c2nc(OC[C@@]34CCCN3C[C@H](F)C4)nc3c(F)c(-c4cccc5ccc(F)c(Cl)c45)ncc23)CCN1C(=O)/C=C/c1ccnc(C2CC2)n1 [Compound 208] | < 10 nM | < 10 nM | 4.2 | 0.01 µg/mL (≈ 0.0128 µM) | –
3 | N#CC[C@H]1CN(c2nc(OCC34CCCN3CCC4)nc3c2CCN(c2cccc4cccc(Cl)c24)C3)CCN1C(=O)/C=C/c1nc(C2CC2)no1 [Compound 23] | 10 to 100 nM | 10 to 100 nM | 3.38 | 12.5 µg/mL (≈ 17.3 µM) | –
4 | N#CC[C@H]1CN(c2nc(OC[C@@]34CCCN3C[C@H](F)C4)nc3c(F)c(-c4cccc(Cl)c4C(F)(F)F)ncc23)CCN1C(=O)/C=C/CN1CCCOCC1 [Compound 113, 2-((S)-1-((E)-4-(1,4-oxazepan-4-yl)but-2-enoyl)-4-(7-(3-chloro-2-(trifluoromethyl)phenyl)-8-fluoro-2-(((2R,7aS)-2-fluorotetrahydro-1H-pyrrolizin-7a(5H)-yl)methoxy)pyrido[4,3-d]pyrimidin-4-yl)piperazin-2-yl)acetonitrile] | < 10 nM | < 10 nM | 2.84 | 124 µg/mL (≈ 160 µM) | –
5 | N#CC[C@H]1CN(c2nc(OC[C@@]34CCCN3C[C@H](F)C4)nc3c(F)c(-c4cccc5ccc(F)c(Cl)c45)ncc23)CCN1C(=O)/C=C/CN1CCCOCC1 [Example 70, 2-((S)-1-((E)-4-(1,4-oxazepan-4-yl)but-2-enoyl)-4-(7-(8-chloro-7-fluoronaphthalen-1-yl)-8-fluoro-2-(((2R,7aS)-2-fluorotetrahydro-1H-pyrrolizin-7a(5H)-yl)methoxy)pyrido[4,3-d]pyrimidin-4-yl)piperazin-2-yl)acetonitrile] | < 10 nM | < 10 nM | 3.25 | 124 µg/mL (≈ 160 µM) | –
6 | N#CC[C@H]1CN(c2nc(OC[C@@]34CCCN3C[C@H](F)C4)nc3c2CCN(c2cccc4ccc(F)c(Cl)c24)C3)CCN1C(=O)/C=C/CN1CCOCC1 [Compound 52] | < 10 nM | < 10 nM | 3.8 | 23.8 µg/mL (≈ 31.8 µM) | –
7 | Cc1nccc(/C=C/C(=O)N2CCN(c3nc(OC[C@@]45CCCN4C[C@H](F)C5)nc4c(F)c(-c5cccc6ccc(F)c(Cl)c56)ncc34)C[C@@H]2CC#N)n1 [Compound 147] | < 10 nM | < 10 nM | 3.64 | 4.93 µg/mL (≈ 6.54 µM) | –
8 | COCCN(C)C/C=C/C(=O)N1CCN(c2nc(OC[C@@]34CCCN3C[C@H](F)C4)nc3c(F)c(-c4cccc5cccc(Cl)c45)ncc23)C[C@@H]1CC#N [Compound 320] | < 10 nM | < 10 nM | 3.05 | 104 µg/mL (≈ 139 µM) | –
9 | Cc1noc(/C=C/C(=O)N2CCN(c3nc(OCC45CCCN4CCC5)nc4c3CCN(c3cccc5cccc(Cl)c35)C4)C[C@@H]2CC#N)n1 [Example 1, (S,E)-2-(4-(7-(8-chloronaphthalen-1-yl)-2-((hexahydro-1H-pyrrolizin-7a-yl)methoxy)-5,6,7,8-tetrahydropyrido[3,4-d]pyrimidin-4-yl)-1-(3-(3-methyl-1,2,4-oxadiazol-5-yl)acryloyl)piperazin-2-yl)acetonitrile] | 10 to 100 nM | < 10 nM | 2.9 | – | 111.20 ug/mL
10 | C[C@H]1CN(C/C=C/C(=O)N2CCN(c3nc(OC[C@@]45CCCN4C[C@H](F)C5)nc4c(F)c(-c5cccc6cccc(Cl)c56)ncc34)C[C@@H]2CC#N)C[C@H](C)O1 [Compound 188] | < 10 nM | < 10 nM | 3.86 | 79.1 µg/mL (≈ 103 µM) | –
11 | Cc1cc(/C=C/C(=O)N2CCN(c3nc(OC[C@@]45CCCN4C[C@H](F)C5)nc4c(F)c(-c5cccc6ccc(F)c(F)c56)ncc34)C[C@@H]2CC#N)nc(C)n1 [Example 90, 2-((S)-4-(7-(7,8-difluoronaphthalen-1-yl)-8-fluoro-2-(((2R,7aS)-2-fluorotetrahydro-1H-pyrrolizin-7a(5H)-yl)methoxy)pyrido[4,3-d]pyrimidin-4-yl)-1-((E)-3-(2,6-dimethylpyrimidin-4-yl)acryloyl)piperazin-2-yl)acetonitrile] | 10 to 100 nM | < 10 nM | 3.77 | 5.26 µg/mL (≈ 7 µM) | –
12 | CN1CCC1/C=C/C(=O)N1CCN(c2nc(OC[C@@]34CCCN3C[C@H](F)C4)nc3c(F)c(-c4cccc5ccc(F)c(Cl)c45)ncc23)C[C@@H]1CC#N (stereo partly shown) [Compound 54] | < 10 nM | < 10 nM | 2.59 | 135 µg/mL (≈ 185 µM) | –
13 | CC(C)c1nccc(/C=C/C(=O)N2CCN(c3nc(OC[C@@]45CCCN4C[C@H](F)C5)nc4c(F)c(-c5cccc6cccc(Cl)c56)ncc34)C[C@@H]2CC#N)n1 [Compound 151] | < 10 nM | < 10 nM | 3.71 | 0.41 µg/mL (≈ 0.536 µM) | –
14 | Cc1nccc(/C=C/C(=O)N2CCN(c3nc(OCC45CCCN4CCC5)nc4c3CCN(c3cccc5cccc(Cl)c35)C4)C[C@@H]2CC#N)n1 [Compound 202] | < 10 nM | < 10 nM | 3.38 | 90.2 µg/mL (≈ 128 µM) | –
15 | Cc1nsc(/C=C/C(=O)N2CCN(c3nc(OC[C@@]45CCCN4C[C@H](F)C5)nc4c3C[C@@H](C)[C@H](c3nc(N)cc(C)c3C(F)(F)F)C4)C[C@@H]2CC#N)n1 [Compound 192] | < 10 nM | < 10 nM | 4.69 | 2.01 µg/mL (≈ 2.66 µM) | –
16 | N#CC[C@H]1CN(c2nc(OC[C@@]34CCCN3C[C@H](F)C4)nc3c(F)c(-c4cccc5ccc(F)c(F)c45)ncc23)CCN1C(=O)/C=C/CN1C2COCC1C2 [Compound 224] | < 10 nM | < 10 nM | 2.96 | 84.6 µg/mL (≈ 112 µM) | –
17 | N#CC[C@H]1CN(c2nc(OC[C@@]34CCCN3C[C@H](F)C4)nc3c(F)c(-c4cccc5cccc(Cl)c45)ncc23)CCN1C(=O)/C=C/CN1CC[C@H](F)C1 [Compound 95, 2-((S)-4-(7-(8-chloronaphthalen-1-yl)-8-fluoro-2-(((2R,7aS)-2-fluorohexahydro-1H-pyrrolizin-7a-yl)methoxy)pyrido[4,3-d]pyrimidin-4-yl)-1-((E)-4-((S)-3-fluoropyrrolidin-1-yl)but-2-enoyl)piperazin-2-yl)acetonitrile] | < 10 nM | < 10 nM | 1.63 | 73.6 µg/mL (≈ 98.7 µM) | –
18 | CC(F)(F)c1noc(/C=C/C(=O)N2CCN(c3nc(OC[C@@]45CCCN4C[C@H](F)C5)nc4c(F)c(-c5cccc6cccc(Cl)c56)ncc34)C[C@@H]2CC#N)n1 [Example 14, 2-((S)-4-(7-(8-chloronaphthalen-1-yl)-8-fluoro-2-(((2R,7aS)-2-fluorotetrahydro-1H-pyrrolizin-7a(5H)-yl)methoxy)pyrido[4,3-d]pyrimidin-4-yl)-1-((E)-3-(3-(1,1-difluoroethyl)-1,2,4-oxadiazol-5-yl)acryloyl)piperazin-2-yl)acetonitrile] | < 10 nM | < 10 nM | 4.49 | 0.04 µg/mL (≈ 0.0515 µM) | –
19 | N#CC[C@H]1CN(c2nc(OC[C@@]34CCCN3C[C@H](F)C4)nc3c(F)c(-c4cccc5cccc(Cl)c45)ncc23)CCN1C(=O)/C=C/c1ccnc(C2CC2)n1 [Compound 154] | < 10 nM | < 10 nM | 4.36 | 0.01 µg/mL (≈ 0.0131 µM) | –
20 | N#CC[C@H]1CN(c2nc(OC[C@@]34CCCN3C[C@H](F)C4)nc3c(F)c(-c4cccc(Cl)c4C4CC4)ncc23)CCN1C(=O)/C=C/CN1C[C@@H]2C[C@H]1CO2 [Compound 277] | < 10 nM | < 10 nM | 2.85 | 91 µg/mL (≈ 122 µM) | –
21 | Cc1nsc(/C=C/C(=O)N2CCN(c3nc(OCC45CCCN4CCC5)nc4c(F)c(-c5cccc6ccc(F)c(Cl)c56)ncc34)C[C@@H]2CC#N)n1 [Compound 156] | < 10 nM | < 10 nM | 2.78 | 84.5 µg/mL (≈ 114 µM) | –
22 | N#CC[C@H]1CN(c2nc(OC[C@@]34CCCN3C[C@H](F)C4)nc3c(F)c(-c4cccc5ccc(F)c(F)c45)ncc23)CCN1C(=O)/C=C/CN1C[C@H]2COC[C@H]2C1 [Compound 223] | < 10 nM | < 10 nM | 3 | 118 µg/mL (≈ 153 µM) | –

Reference: patent publication US20250129103A1, “METHODS FOR TREATMENT OF CANCER” (Frontier Medicines Corporation, priority 2022, published 2025)
